Laboratory results reported in patent US6936585B2, “Corticotropin releasing factor 2 receptor agonists” (priority 2002, dated 2005).
Ends that are not written are not given here. Peptide text beside a SMILES is read from it.

Experiments:
[1] = biological target: T1, CRF2R (Homo sapiens, UniProt Q13324); test: CRF2R agonist activation (EC50 / Emax), called comparative CRF binding; type: cell-based; settings: read-out: CRF2R Emax
T1 sequence (Q13324 1-411): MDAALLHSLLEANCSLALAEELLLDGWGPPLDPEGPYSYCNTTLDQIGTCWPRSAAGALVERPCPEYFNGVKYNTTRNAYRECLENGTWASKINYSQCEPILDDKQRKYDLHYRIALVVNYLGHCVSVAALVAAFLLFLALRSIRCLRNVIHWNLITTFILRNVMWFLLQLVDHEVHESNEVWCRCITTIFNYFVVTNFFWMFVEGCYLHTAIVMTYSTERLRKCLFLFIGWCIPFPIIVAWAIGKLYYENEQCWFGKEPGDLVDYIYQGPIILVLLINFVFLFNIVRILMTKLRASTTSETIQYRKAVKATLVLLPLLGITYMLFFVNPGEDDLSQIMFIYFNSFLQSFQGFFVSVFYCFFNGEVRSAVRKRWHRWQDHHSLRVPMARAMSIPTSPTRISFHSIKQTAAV
Source text: (§1) The pharmacological activity and selectivity of the peptides of present invention can be determined using published test procedures. See, e.g, U.S. patent application Ser. No. 09/799,978 (now issued U.S. Pat. No. 6,670,140). Because CRF2R and CRF1R are homologous proteins, it is expected that a certain proportion of agonists for CRF2R will also function as agonists of CRF1R. As discussed above, activation of CRF1R induces activation of the HPA axis since increased corticosteroid production leads to skeletal muscle atrophy. In most cases in which an increase in muscle mass or function is desired, it is not desirable to activate the HPA axis.
(§2) Cell-based assays include the steps of contacting cells which express CRF1R or CRF2R with a peptide of the present invention or control and measuring activation of the CRFR by measuring the expression or activity of components of the CRFR signal transduction pathways.
(§3) For example, after contact with a peptide of the present invention, lysates of the cells can be prepared and assayed for induction of cAMP. cAMP is induced in response to Gαs activation. Because Gαs is activated by receptors other than CRFR and because a test peptide may be exerting its effect through CRFRs or by another mechanism, two control comparisons are relevant for determining whether the peptide increases levels of cAMP via activation of a CRFR. One control compares the cAMP level of cells contacted with the peptide and the cAMP level of cells contacted with a control compound (i.e., the vehicle in which the peptide is dissolved).
(§4) In one example, cAMP induction is measured with the use of DNA constructs containing the cAMP responsive element linked to any of a variety of reporter genes can be introduced into cells expressing CRFRs. Such reporter genes include, but are not limited to, chloramphenicol acetyltransferase (CAT), luciferase, glucuronide synthetase, growth hormone, fluorescent proteins (e.g., Green Fluorescent Protein), or alkaline phosphatase. Following exposure of the cells to the peptide, the level of reporter gene expression can be quantitated to determine the peptide's ability to increase cAMP levels and thus determine the peptide's ability to activate the CRFR.
(§5) In addition to using cells expressing full length CRFRs, cells can be engineered which express CRFRs containing the ligand binding domain of the receptor coupled to, or physically modified to contain, reporter elements or to interact with signaling proteins. For example, a wild type CRFR or CRFR fragment can be fused to a G-protein resulting in activation of the fused G-protein upon agonist binding to the CRFR portion of the fusion protein. […] In addition, alternative pathways for induction of the CRE reporter could be eliminated to reduce basal levels.

[2] = biological target: T2, CRF1R (Homo sapiens, UniProt P34998); test: CRF1R agonist activation (EC50 / Emax), called comparative CRF binding; type: cell-based; settings: for Emax: read-out: CRF1R Emax; for EC50: read-out: CRF1R EC50
T2 sequence (P34998 24-415): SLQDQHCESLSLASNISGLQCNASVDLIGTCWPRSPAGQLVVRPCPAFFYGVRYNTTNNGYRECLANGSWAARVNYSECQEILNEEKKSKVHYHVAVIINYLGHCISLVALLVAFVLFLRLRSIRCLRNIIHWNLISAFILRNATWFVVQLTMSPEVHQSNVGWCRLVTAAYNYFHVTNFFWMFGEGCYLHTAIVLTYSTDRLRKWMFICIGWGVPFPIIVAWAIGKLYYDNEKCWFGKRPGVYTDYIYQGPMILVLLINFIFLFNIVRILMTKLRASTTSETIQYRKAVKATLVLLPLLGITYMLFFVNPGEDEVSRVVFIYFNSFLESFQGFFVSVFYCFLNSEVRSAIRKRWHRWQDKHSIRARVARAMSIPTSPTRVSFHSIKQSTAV
Source text: as §1, §2, §3, §4, §5

Row | Compound | Emax [1] | Emax [2] | EC50 [2]
1 | CC[C@H](C)[C@H](NC(=O)[C@H](CCCNC(=N)N)NC(=O)[C@H](C)NC(=O)[C@H](CC(N)=O)NC(=O)[C@H](CCC(N)=O)NC(=O)[C@H](CCC(=O)O)NC(=O)[C@H](C)NC(=O)[C@H](CCCNC(=N)N)NC(=O)[C@H](CCC(=O)O)NC(=O)[C@H](CCCNC(=N)N)NC(=O)[C@H](CCC(N)=O)NC(=O)[C@H](CO)NC(=O)[C@H](CCC(N)=O)NC(=O)[C@@H](NC(=O)[C@H](CCCCN)NC(=O)[C@H](CCC(=O)O)NC(=O)[C@H](CC(C)C)NC(=O)[C@H](CCC(=O)O)NC(=O)[C@H](CC(C)C)NC(=O)[C@H](CC(C)C)NC(=O)[C@@H](NC(=O)[C@H](CCCNC(=N)N)NC(=O)[C@H](CC(C)C)NC(=O)[C@H](CC(C)C)NC(=O)[C@H](CC(C)C)NC(=O)[C@H](CC(C)C)NC(=O)[C@@H]1CCCN1C(=O)[C@H](CC(C)C)NC(=O)[C@H](CC(=O)O)NC(=O)[C@@H](NC(=O)[C@H](CO)NC(=O)[C@H](CC(C)C)NC(=O)[C@H](CO)NC(=O)[C@@H]1CCCN1C(=O)[C@H](CC(N)=O)NC(=O)[C@@H](N)CC(=O)O)[C@@H](C)CC)[C@@H](C)O)[C@@H](C)O)C(=O)N[C@@H](Cc1ccccc1)C(=O)N[C@@H](C)C(=O)N[C@@H](CCCNC(=N)N)C(=O)N[C@H](C(N)=O)C(C)C [compound 341] (H-DNPSLSIDLPLLLLRTLLELEKTQSQRERAEQNARIFARV-NH2; N-terminus assumed) | 95.5% | 82.3% | –
2 | SQEPPISLDLPLHLLREVLEMTKADQLAQQAHSNRKLLDIA-NH2 [compound 102] | 13.5% | 7.8% | –
3 | CC[C@H](C)[C@H](N)C(=O)N[C@H](C(=O)N[C@@H](CC(C)C)C(=O)N[C@@H](CO)C(=O)N[C@@H](CC(C)C)C(=O)N[C@@H](CC(=O)O)C(=O)N[C@H](C(=O)N1CCC[C@H]1C(=O)N[C@H](C(=O)NCC(=O)N[C@@H](CC(C)C)C(=O)N[C@@H](CC(C)C)C(=O)N[C@@H](CCC(N)=O)C(=O)N[C@H](C(=O)N[C@@H](CC(C)C)C(=O)N[C@@H](CC(C)C)C(=O)N[C@@H](CCC(=O)O)C(=O)N[C@@H](CCC(N)=O)C(=O)N[C@@H](CCC(=O)O)C(=O)N[C@@H](CCCCN)C(=O)N[C@@H](C)C(=O)N[C@@H](CCCNC(=N)N)C(=O)N[C@@H](C)C(=O)N[C@@H](C)C(=O)N[C@@H](CCCNC(=N)N)C(=O)N[C@@H](CCC(=O)O)C(=O)N[C@@H](CCC(N)=O)C(=O)N[C@@H](C)C(=O)N[C@H](C(=O)N[C@H](C(=O)N[C@@H](CC(N)=O)C(=O)N[C@@H](C)C(=O)N[C@@H](CCCNC(=N)N)C(=O)N[C@H](C(=O)N[C@@H](CC(C)C)C(=O)N[C@@H](C)C(=O)N[C@@H](CCCNC(=N)N)C(=O)N[C@H](C(N)=O)C(C)C)[C@@H](C)CC)[C@@H](C)O)[C@@H](C)O)[C@@H](C)CC)[C@@H](C)CC)C(C)C)C(C)C [compound 107] (H-IVLSLDVPIGLLQILLEQEKARAAREQATTNARILARV-NH2; N-terminus assumed) | 87.9% | – | –
4 | CC[C@H](C)[C@H](N)C(=O)N[C@H](C(=O)N[C@@H](CC(C)C)C(=O)N[C@@H](CO)C(=O)N[C@@H](CC(C)C)C(=O)N[C@@H](CC(=O)O)C(=O)N[C@H](C(=O)N1CCC[C@H]1C(=O)N[C@H](C(=O)NCC(=O)N[C@@H](CC(C)C)C(=O)N[C@@H](CC(C)C)C(=O)N[C@@H](CCC(N)=O)C(=O)N[C@H](C(=O)N[C@@H](CC(C)C)C(=O)N[C@@H](CC(C)C)C(=O)N[C@@H](CCC(=O)O)C(=O)N[C@@H](CCC(N)=O)C(=O)N[C@H](C(=O)N[C@@H](CCCCN)C(=O)N[C@@H](C)C(=O)N[C@@H](CCCNC(=N)N)C(=O)N[C@@H](C)C(=O)N[C@@H](C)C(=O)N[C@@H](CCCNC(=N)N)C(=O)N[C@@H](CCC(=O)O)C(=O)N[C@@H](CCC(N)=O)C(=O)N[C@@H](C)C(=O)N[C@H](C(=O)N[C@H](C(=O)N[C@@H](CC(N)=O)C(=O)N[C@@H](C)C(=O)N[C@@H](CCCNC(=N)N)C(=O)N[C@H](C(=O)N[C@@H](CC(C)C)C(=O)N[C@@H](C)C(=O)N[C@@H](CCCNC(=N)N)C(=O)N[C@H](C(N)=O)C(C)C)[C@@H](C)CC)[C@@H](C)O)[C@@H](C)O)[C@@H](C)O)[C@@H](C)CC)[C@@H](C)CC)C(C)C)C(C)C [compound 129] (H-IVLSLDVPIGLLQILLEQTKARAAREQATTNARILARV-NH2; N-terminus assumed) | – | – | > 100 nM
5 | CC[C@H](C)[C@H](N)C(=O)N[C@H](C(=O)N[C@@H](CC(C)C)C(=O)N[C@@H](CO)C(=O)N[C@@H](CC(C)C)C(=O)N[C@@H](CC(=O)O)C(=O)N[C@H](C(=O)N1CCC[C@H]1C(=O)N[C@H](C(=O)NCC(=O)N[C@@H](CC(C)C)C(=O)N[C@@H](CC(C)C)C(=O)N[C@@H](CCC(N)=O)C(=O)N[C@H](C(=O)N[C@@H](CC(C)C)C(=O)N[C@@H](CC(C)C)C(=O)N[C@@H](CCC(=O)O)C(=O)N[C@@H](CCC(N)=O)C(=O)N[C@@H](C)C(=O)N[C@@H](CCCNC(=N)N)C(=O)N[C@@H](C)C(=O)N[C@@H](CCCNC(=N)N)C(=O)N[C@@H](C)C(=O)N[C@@H](C)C(=O)N[C@@H](CCCNC(=N)N)C(=O)N[C@@H](CCC(=O)O)C(=O)N[C@@H](CCC(N)=O)C(=O)N[C@@H](C)C(=O)N[C@H](C(=O)N[C@H](C(=O)N[C@@H](CC(N)=O)C(=O)N[C@@H](C)C(=O)N[C@@H](CCCNC(=N)N)C(=O)N[C@H](C(=O)N[C@@H](CC(C)C)C(=O)N[C@@H](C)C(=O)N[C@@H](CCCNC(=N)N)C(=O)N[C@H](C(=O)N[C@@H](CCSC)C(N)=O)C(C)C)[C@@H](C)CC)[C@@H](C)O)[C@@H](C)O)[C@@H](C)CC)[C@@H](C)CC)C(C)C)C(C)C [compound 356] (H-IVLSLDVPIGLLQILLEQARARAAREQATTNARILARVM-NH2) | – | 9% | –
6 | SQEPPISLDLPLELLREVLEMTKADQLAQQAHSNRKLLDIA-NH2 [compound 89] | 12.7% | – | –
7 | CC[C@H](C)[C@H](N)C(=O)N[C@H](C(=O)N[C@@H](CC(C)C)C(=O)N[C@@H](CO)C(=O)N[C@@H](CC(C)C)C(=O)N[C@@H](CC(=O)O)C(=O)N[C@H](C(=O)N1CCC[C@H]1C(=O)N[C@H](C(=O)NCC(=O)N[C@@H](CC(C)C)C(=O)N[C@@H](CC(C)C)C(=O)N[C@@H](CCC(N)=O)C(=O)N[C@H](C(=O)N[C@@H](CC(C)C)C(=O)N[C@@H](CC(C)C)C(=O)N[C@@H](CCC(=O)O)C(=O)N[C@@H](CCC(N)=O)C(=O)N[C@@H](C)C(=O)N[C@@H](CCCCN)C(=O)N[C@@H](C)C(=O)N[C@@H](CCCNC(=N)N)C(=O)N[C@@H](C)C(=O)N[C@@H](C)C(=O)N[C@@H](CCCNC(=N)N)C(=O)N[C@@H](CCC(=O)O)C(=O)N[C@@H](CCC(N)=O)C(=O)N[C@@H](C)C(=O)N[C@H](C(=O)N[C@H](C(=O)N[C@@H](CC(N)=O)C(=O)N[C@@H](C)C(=O)N[C@@H](CCCNC(=N)N)C(=O)N[C@H](C(=O)N[C@@H](CC(C)C)C(=O)N[C@@H](C)C(=O)N[C@@H](CCCNC(=N)N)C(=O)N[C@H](C(N)=O)C(C)C)[C@@H](C)CC)[C@@H](C)O)[C@@H](C)O)[C@@H](C)CC)[C@@H](C)CC)C(C)C)C(C)C [compound 127] (H-IVLSLDVPIGLLQILLEQAKARAAREQATTNARILARV-NH2; N-terminus assumed) | – | – | > 100 nM
